Test results published in US11833256B2, “Selective RARγ ligand-loaded nanoparticles for manipulation of targeted bone growth” (University Of Maryland, Baltimore, priority 2017, dated 2023).

Experiments:
Chick limb bud cells = experiment: Limb bud cell high density culture, cartilage matrix by Alcian blue; format: cell-based; settings: RA 1 μM or AGN194310 100 nM for 6 days
Procedure: The limb bud cells were inoculated at a high density and treated with retinoids. Cartilage matrix accumulation was visualized by Alcian blue staining. […] Similar testing was described in Hoffman et al., J. Cell. Biol. 174:101-113, 2006. Chick limb bud cells were isolated from […], seeded at the density of 4×10^5 cells in 10 μL and maintained in 1% FBS containing high glucose DMEM for 3 days. Cultures then were treated with 0.1% EtOH (vehicle), retinoic acid (RA) 1 μM or AGN194310 100 nM for 6 days, fixed, and stained with Alcian Blue, pH 1.0.

[1] = Nanoparticle characterisation (size, drug loading); settings: in PLA-based NP
Procedure: The drug loading of NP was determined spectrophotometrically against suitable calibration curves following two-step drug extraction in sec-butanol. Particle size measurements were performed by dynamic light scattering using a 90 Plus Particle Size Analyzer. An external sink method was applied for measuring drug release kinetics under sink conditions as follows: NP were diluted in PBS/2% bovine serum albumin and incubated with a water-immiscible acceptor medium (1-octanol and n-heptane, 1:1 v/v), and the released drug assayed spectrophotometrically in the acceptor medium samples at predetermined time-points.

RARγ = target: T1, RARγ (Homo sapiens, UniProt P13631); experiment: Potency (ED50/EC50) of RARγ agonists
T1 sequence (P13631 1-454): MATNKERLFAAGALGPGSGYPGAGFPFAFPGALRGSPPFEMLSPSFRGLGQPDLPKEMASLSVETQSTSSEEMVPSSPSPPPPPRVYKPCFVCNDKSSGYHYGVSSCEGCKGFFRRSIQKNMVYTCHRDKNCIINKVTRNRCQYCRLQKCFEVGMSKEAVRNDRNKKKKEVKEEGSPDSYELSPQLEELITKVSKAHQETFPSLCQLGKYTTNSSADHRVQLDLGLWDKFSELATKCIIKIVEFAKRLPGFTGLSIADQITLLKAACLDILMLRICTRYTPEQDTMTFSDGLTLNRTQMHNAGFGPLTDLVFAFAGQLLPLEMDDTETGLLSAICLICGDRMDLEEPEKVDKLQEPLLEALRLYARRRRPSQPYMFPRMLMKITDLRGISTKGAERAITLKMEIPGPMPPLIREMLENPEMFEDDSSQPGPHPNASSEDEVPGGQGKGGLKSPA

[2] = tested on: heterotopic ossification (HO); experiment: Heterotopic ossification in FOP model mice, oral palovarotene; format: in vivo, mouse; settings: oral administration
Source text: As discussed above, control and adjustment of specific long bone growth dysregulation requires achieving a highly localized and sustained therapeutic effect. Today, surgical resection combined with systemically administered anti-inflammatory drugs is the primary treatment modality for acquired HO. Treatment options for FOP are further limited. Because the surgical procedure itself can induce additional HO formation, systemic drug therapy aimed at reducing HO progression and related symptoms is the sole choice. […] However, despite the significant reduction in HO with this treatment regimen, systemic administration of the RARγ agonist fails to completely prevent the disease. Enhancing efficacy by increasing the systemic drug dosage may not be possible without causing strong and even toxic off-target effects. Thus, the inventive methods of treatment here increase the activity at the target site without inducing unwanted systemic effects using biodegradable nanoparticle (NP) formulations impregnated with a potent RARγ agonist capable of targeting specific areas of bone.
Acvr1cR206H/+; R26-rtTA; tetO-cre mice, treated with doxycycline to induce global expression of Acvr1cR206H/+, were subjected to hindlimb muscle injury with cardiotoxin and examined by μCT imaging 14 days after treatment with palovarotene (right) or vehicle (left). […]

[3] = Hydrophobicity of acetaminophen-capped prodrug derivative versus parent; format: physicochemical; settings: acetaminophen-capped derivative vs parent retinoid
Source text: In order to produce an in situ activatable, reversibly hydrophobized prodrug derivatives of a RARγ agonist, a pro-drug can be delivered in a nanoparticle formulation. […] However, the ionizable carboxylic group promotes the partitioning of the compound from the particle to the surrounding aqueous medium. […] The compound would be activatable upon release can increase the stability of the particle-cargo association and help achieve a more lasting and highly localized therapeutic effect. Such constructs are in essence mutual prodrugs or co-drugs, as they regenerate in one step the retinoid compound and acetaminophen, a biologically active “helper” agent, which can play an important supporting role in therapy.

[4] = tested on: heterotopic ossification (HO) in FOP patients; settings: systemic palovarotene; top-line results of ongoing Phase II trial; cited from earlier work

## CCc1ccc(C2=CC(C)(C)Sc3ccc(C#Cc4ccc(C(=O)O)cc4)cc32)cc1 [AGN194310]
Chick limb bud cells
  cartilage matrix production / cartilage forming region (Alcian blue): enhanced

## CC(=O)Nc1ccc(OC(=O)c2ccc3cc(C4(c5ccc6c(c5)C(C)(C)CCC6(C)C)SCCS4)ccc3c2)cc1 [MM 11253 prodrug]
[1]
  average particle size: 565 nm
  drug loading: 1 mg/mL
  entrapment yield: 67%
  polydispersity index: < 0.1

## CC1(C)CCC(C)(C)c2cc(Cn3cccn3)c(/C=C/c3ccc(C(=O)O)cc3)cc21 [palovarotene]
RARγ
  potency (EC50) compared with NRX204647: inferior to that of NRX204647
[2]
  HO in FOP model mice: effectively reduces HO
[3]
  more hydrophobic derivative if modified with acetaminophen: 15 fold
[4]
  reduction of HO in patients: up to 70%
